Test system: MV-4-11 cells
Assay: Gene expression microarray analysis (Affymetrix PrimeView) and GSEA
Assay type: cell-based, human
Design: RFU PODN (11730768_x_at) / Fold change /veh PODN (11730768_x_at) / RFU LINC00158 (11744669_a_at) / Fold change /veh LINC00158 (11744669_a_at) / RFU DUSP10 (11751237_a_at) / Fold change /veh DUSP10 (11751237_a_at) / RFU ID3 (11757404_x_at) / Fold change /veh ID3 (11757404_x_at) / RFU PLEKHG5 (11737974_s_at) / Fold change /veh PLEKHG5 (11737974_s_at) / RFU LRRC4B (11730491_at) / Fold change /veh LRRC4B (11730491_at) / RFU GIMAP4 (11747438_a_at) / Fold change /veh GIMAP4 (11747438_a_at) / RFU KRT8 (11758183_x_at) / Fold change /veh KRT8 (11758183_x_at) / RFU CNN1 (11734310_a_at) / Fold change /veh CNN1 (11734310_a_at) / RFU VPS37D (11726825_at) / Fold change /veh VPS37D (11726825_at) / RFU C10orf10 (11716522_x_at) / Fold change /veh C10orf10 (11716522_x_at) / RFU KIR2DL2 /// KIR2DL4 /// KIR2DL5A /// KIR2DL5B /// KIR2DS1 /// KIR2DS2 /// KIR2DS3 /// KIR2DS4 /// KIR3DL3 /// KIR3DL3 /// KIR3DS1 (11738374_at) / Fold change /veh KIR2DL2 /// KIR2DL4 /// KIR2DL5A /// KIR2DL5B /// KIR2DS1 /// KIR2DS2 /// KIR2DS3 /// KIR2DS4 /// KIR3DL3 /// KIR3DL3 /// KIR3DS1 (11738374_at) / RFU C1QL1 (11718748_at) / Fold change /veh C1QL1 (11718748_at) / RFU TMPRSS4 (11747572_a_at) / Fold change /veh TMPRSS4 (11747572_a_at) / RFU HAMP (11756126_x_at) / Fold change /veh HAMP (11756126_x_at) / RFU RNFT2 (11725882_a_at) / Fold change /veh RNFT2 (11725882_a_at) / RFU NR4A2 (11747474_a_at) / Fold change /veh NR4A2 (11747474_a_at) / RFU ABCC12 (11746883_a_at) / Fold change /veh ABCC12 (11746883_a_at) / RFU TMEM136 (11760407_x_at) / Fold change /veh TMEM136 (11760407_x_at) / RFU CLDN22 /// WWC2 (11732394_at) / Fold change /veh CLDN22 /// WWC2 (11732394_at) / RFU HLA-DPB1 (11760878_x_at) / Fold change /veh HLA-DPB1 (11760878_x_at) / RFU SPINT1 (11716480_a_at) / Fold change /veh SPINT1 (11716480_a_at) / RFU GAP43 (11754022_s_at) / Fold change /veh GAP43 (11754022_s_at) / RFU A4GNT (11735810_at) / Fold change /veh A4GNT (11735810_at) / RFU PRB3 (11715151_x_at) / Fold change /veh PRB3 (11715151_x_at) / RFU TUBB4B (11761932_at) / Fold change /veh TUBB4B (11761932_at) / RFU CAPN14 (11732068_a_at) / Fold change /veh CAPN14 (11732068_a_at) / RFU TMCC2 (11721928_a_at) / Fold change /veh TMCC2 (11721928_a_at) / RFU IRGQ (11745062_a_at) / Fold change /veh IRGQ (11745062_a_at) / RFU FAM174B (11720279_a_at) / Fold change /veh FAM174B (11720279_a_at) / RFU TMPRSS4 (11748680_a_at) / Fold change /veh TMPRSS4 (11748680_a_at) / RFU FAM212B (11763350_a_at) / Fold change /veh FAM212B (11763350_a_at) / RFU PLEKHG5 (11743358_a_at) / Fold change /veh PLEKHG5 (11743358_a_at) / RFU ZSCAN30 (11745921_a_at) / Fold change /veh ZSCAN30 (11745921_a_at) / RFU CMKLR1 (11741424_a_at) / Fold change /veh CMKLR1 (11741424_a_at) / RFU LOC101060620 /// MAPK8IP1 (11723275_at) / Fold change /veh LOC101060620 /// MAPK8IP1 (11723275_at) / RFU SPTSSB (11747773_x_at) / Fold change /veh SPTSSB (11747773_x_at) / RFU PRSS12 (11739890_at) / Fold change /veh PRSS12 (11739890_at) / RFU BIN1 (11741810_x_at) / Fold change /veh BIN1 (11741810_x_at) / RFU WNT11 (11732464_a_at) / Fold change /veh WNT11 (11732464_a_at) / RFU C10orf10 (11716521_a_at) / Fold change /veh C10orf10 (11716521_a_at) / RFU C5orf56 (11738089_at) / Fold change /veh C5orf56 (11738089_at) / RFU CYB561 (11721691_x_at) / Fold change /veh CYB561 (11721691_x_at) / RFU ANKRD19P (11752326_a_at) / Fold change /veh ANKRD19P (11752326_a_at) / RFU OR2T12 /// OR2T33 /// OR2T8 (11738714_s_at) / Fold change /veh OR2T12 /// OR2T33 /// OR2T8 (11738714_s_at) / RFU VCAN (11748164_a_at) / Fold change /veh VCAN (11748164_a_at) / RFU JSRP1 (11732532_at) / Fold change /veh JSRP1 (11732532_at) / RFU KRTAP10-11 (11738290_x_at) / Fold change /veh KRTAP10-11 (11738290_x_at) / RFU MYO3A (11730013_a_at) / Fold change /veh MYO3A (11730013_a_at) / RFU EBF3 (11725865_a_at) / Fold change /veh EBF3 (11725865_a_at) / RFU CAMK2N1 (11719241_x_at) / Fold change /veh CAMK2N1 (11719241_x_at) / RFU C5orf56 (11738088_a_at) / Fold change /veh C5orf56 (11738088_a_at) / RFU OLFML3 (11715873_a_at) / Fold change /veh OLFML3 (11715873_a_at) / RFU LOC100653217 /// NTM (11731650_a_at) / Fold change /veh LOC100653217 /// NTM (11731650_a_at) / RFU MAPK11 (11762145_a_at) / Fold change /veh MAPK11 (11762145_a_at) / RFU FIZ1 (11724087_x_at) / Fold change /veh FIZ1 (11724087_x_at) / RFU OASL (11726364_x_at) / Fold change /veh OASL (11726364_x_at) / RFU SOX15 (11748057_x_at) / Fold change /veh SOX15 (11748057_x_at) / RFU CD79A (11719716_a_at) / Fold change /veh CD79A (11719716_a_at) / RFU HIST1H1D (11736915_at) / Fold change /veh HIST1H1D (11736915_at) / RFU CASKIN2 (11723855_a_at) / Fold change /veh CASKIN2 (11723855_a_at) / RFU LOC730098 (11760151_x_at) / Fold change /veh LOC730098 (11760151_x_at) / RFU OR4N2 (11742367_at) / Fold change /veh OR4N2 (11742367_at) / RFU PRRT2 (11749266_a_at) / Fold change /veh PRRT2 (11749266_a_at) / RFU SNX32 (11753110_a_at) / Fold change /veh SNX32 (11753110_a_at) / RFU CDHR5 (11726645_a_at) / Fold change /veh CDHR5 (11726645_a_at) / RFU RCAN1 (11760418_a_at) / Fold change /veh RCAN1 (11760418_a_at) / RFU FAM167A (11723789_a_at) / Fold change /veh FAM167A (11723789_a_at) / RFU FAM26E (11764081_at) / Fold change /veh FAM26E (11764081_at) / RFU ISYNA1 (11749810_s_at) / Fold change /veh ISYNA1 (11749810_s_at) / RFU ACY1 (11761880_at) / Fold change /veh ACY1 (11761880_at) / RFU 11764098_at / Fold change /veh 11764098_at / RFU SAMD14 (11745864_x_at) / Fold change /veh SAMD14 (11745864_x_at) / RFU NPB (11741838_a_at) / Fold change /veh NPB (11741838_a_at) / RFU TMPRSS6 (11731388_a_at) / Fold change /veh TMPRSS6 (11731388_a_at) / RFU KRTAP10-2 (11738614_at) / Fold change /veh KRTAP10-2 (11738614_at) / RFU ARHGAP8 /// PRR5-ARHGAP8 (11727945_x_at) / Fold change /veh ARHGAP8 /// PRR5-ARHGAP8 (11727945_x_at) / RFU KRTAP5-7 /// NADSYN1 (11734609_at) / Fold change /veh KRTAP5-7 /// NADSYN1 (11734609_at) / RFU RASL12 (11751679_a_at) / Fold change /veh RASL12 (11751679_a_at) / RFU CDKN2B (11736163_a_at) / Fold change /veh CDKN2B (11736163_a_at) / RFU PRF1 (11729649_at) / Fold change /veh PRF1 (11729649_at) / RFU, ZNF638 /// ZNF638-IT1 / Fold change vs veh, ZNF638 /// ZNF638-IT1 / RFU, PANK3 / Fold change vs veh, PANK3 / RFU, SH3YL1 / Fold change vs veh, SH3YL1 / RFU, ZEB2 / Fold change vs veh, ZEB2 / RFU, NRIP1 / Fold change vs veh, NRIP1 / RFU, PTTG1IP / Fold change vs veh, PTTG1IP / RFU, CAPN2 / Fold change vs veh, CAPN2 / RFU, MED14 / Fold change vs veh, MED14 / RFU, SNORA58 / Fold change vs veh, SNORA58 / RFU, C1orf63 / Fold change vs veh, C1orf63 / RFU, LRRFIP1 / Fold change vs veh, LRRFIP1 / RFU, NDUFAF7 / Fold change vs veh, NDUFAF7 / RFU, SLC12A2 / Fold change vs veh, SLC12A2 / RFU, IBTK / Fold change vs veh, IBTK / RFU, ESF1 / Fold change vs veh, ESF1 / Fold change vs veh, TMEM50B / RFU, TAOK1 / Fold change vs veh, TAOK1 / RFU, ACBD3 / Fold change vs veh, ACBD3 / RFU, TMA16 / Fold change vs veh, TMA16 / RFU, RWDD3 / Fold change vs veh, RWDD3 / RFU, BCAT1 / Fold change vs veh, BCAT1 / RFU, EDEM3 / Fold change vs veh, EDEM3 / RFU, TMEM33 / Fold change vs veh, TMEM33 / RFU, WDR75 / Fold change vs veh, WDR75 / RFU, AHCTF1 / Fold change vs veh, AHCTF1 / RFU, TFRC / Fold change vs veh, TFRC / RFU, ZDHHC17 / Fold change vs veh, ZDHHC17 / RFU, NOM1 / Fold change vs veh, NOM1 / RFU, ARL8B / Fold change vs veh, ARL8B / RFU, ZBTB11 / Fold change vs veh, ZBTB11 / RFU, TAMM41 / Fold change vs veh, TAMM41 / RFU, KIAA1704 /// LOC100996395 / Fold change vs veh, KIAA1704 /// LOC100996395 / RFU, ING1 / Fold change vs veh, ING1 / RFU, TRMT61B / Fold change vs veh, TRMT61B / RFU, FUBP3 / Fold change vs veh, FUBP3 / RFU, TP53 / Fold change vs veh, TP53 / RFU, TNKS2 / Fold change vs veh, TNKS2 / RFU, ZFP14 / Fold change vs veh, ZFP14 / RFU, ACTR2 / Fold change vs veh, ACTR2 / RFU, PPP3R1 / Fold change vs veh, PPP3R1 / RFU, PIK3R1 / Fold change vs veh, PIK3R1 / RFU, HNRNPA1 / Fold change vs veh, HNRNPA1 / RFU, RNF170 / Fold change vs veh, RNF170 / RFU, ZNF28 / Fold change vs veh, ZNF28 / RFU, RNGTT / Fold change vs veh, RNGTT / RFU, OGT / Fold change vs veh, OGT / RFU, BRD1 / Fold change vs veh, BRD1 / RFU, MARS / Fold change vs veh, MARS / RFU, ZNF655 / Fold change vs veh, ZNF655 / RFU, FAHD1 / Fold change vs veh, FAHD1 / RFU, BDP1 / Fold change vs veh, BDP1 / RFU, LRRCC1 / Fold change vs veh, LRRCC1 / RFU, ARID1A / Fold change vs veh, ARID1A / RFU, ZNF146 / Fold change vs veh, ZNF146 / RFU, ZNF330 / Fold change vs veh, ZNF330 / RFU, GPN3 / Fold change vs veh, GPN3 / RFU, C9orf123 / Fold change vs veh, C9orf123 / RFU, N4BP2L2 / Fold change vs veh, N4BP2L2 / RFU, ARFIP1 / Fold change vs veh, ARFIP1 / RFU, FAM179B / Fold change vs veh, FAM179B / RFU, BCL10 / Fold change vs veh, BCL10 / RFU, UHRF1BP1L / Fold change vs veh, UHRF1BP1L / RFU, BET1 / Fold change vs veh, BET1 / RFU, CNOT2 / Fold change vs veh, CNOT2 / RFU, ZNF268 / Fold change vs veh, ZNF268 / Fold change vs veh, ZNF507 / RFU, DGCR2 / Fold change vs veh, DGCR2 / RFU, WDSUB1 / Fold change vs veh, WDSUB1 / Fold change vs veh, HSP90B1 /// MIR3652 / RFU, ADSS / Fold change vs veh, ADSS / RFU, GK / Fold change vs veh, GK / RFU, ZNF148 / Fold change vs veh, ZNF148 / RFU, TAF9 / Fold change vs veh, TAF9 / RFU, SLC1A5 / Fold change vs veh, SLC1A5 / RFU, SLMO2 / Fold change vs veh, SLMO2 / RFU, ABCC4 / Fold change vs veh, ABCC4 / RFU, LOC101060439 /// RAP1B / Fold change vs veh, LOC101060439 /// RAP1B / RFU, RFX7 / Fold change vs veh, RFX7 / RFU, GTPBP10 / Fold change vs veh, GTPBP10 / RFU, CNEP1R1 / Fold change vs veh, CNEP1R1 / RFU, BIVM-ERCC5 /// ERCC5 / Fold change vs veh, BIVM-ERCC5 /// ERCC5 / RFU, ILF3 / Fold change vs veh, ILF3 / RFU 11762660_at / Fold change /veh 11762660_at / RFU VCAN (11757783_s_at) / Fold change /veh VCAN (11757783_s_at) / RFU DDX43 (11728927_at) / Fold change /veh DDX43 (11728927_at) / RFU KRT8 (11758188_x_at) / Fold change /veh KRT8 (11758188_x_at) / RFU NKD1 (11759106_at) / Fold change /veh NKD1 (11759106_at) / RFU SRD5A1 (11742802_a_at) / Fold change /veh SRD5A1 (11742802_a_at) / RFU TPSAB1 /// TPSB2 (11721975_s_at) / Fold change /veh TPSAB1 /// TPSB2 (11721975_s_at) / RFU GSTM3 (11746129_a_at) / Fold change /veh GSTM3 (11746129_a_at) / RFU IL23R (11737362_x_at) / Fold change /veh IL23R (11737362_x_at) / RFU TMEM51 (11727254_a_at) / Fold change /veh TMEM51 (11727254_a_at) / RFU PIWIL2 (11732686_x_at) / Fold change /veh PIWIL2 (11732686_x_at) / RFU ORM1 (11744905_x_at) / Fold change /veh ORM1 (11744905_x_at) / RFU CCDC152 (11743942_at) / Fold change /veh CCDC152 (11743942_at) / RFU ECM1 (11717891_a_at) / Fold change /veh ECM1 (11717891_a_at) / RFU IL23R (11748794_a_at) / Fold change /veh IL23R (11748794_a_at) / RFU TNFAIP8L3 (11732012_x_at) / Fold change /veh TNFAIP8L3 (11732012_x_at) / RFU MBOAT4 (11741988_at) / Fold change /veh MBOAT4 (11741988_at) / RFU 11764193_at / Fold change /veh 11764193_at / RFU TMEM53 (11763286_at) / Fold change /veh TMEM53 (11763286_at) / RFU MAGEB2 (11727129_at) / Fold change /veh MAGEB2 (11727129_at) / RFU TMEM200A (11744735_a_at) / Fold change /veh TMEM200A (11744735_a_at) / RFU CCDC152 (11751479_a_at) / Fold change /veh CCDC152 (11751479_a_at) / RFU FAM211A (11726209_a_at) / Fold change /veh FAM211A (11726209_a_at) / RFU RGS16 (11746705_a_at) / Fold change /veh RGS16 (11746705_a_at) / RFU VCAN (11755009_s_at) / Fold change /veh VCAN (11755009_s_at) / RFU RHOB (11743442_s_at) / Fold change /veh RHOB (11743442_s_at) / RFU RGS16 (11720943_a_at) / Fold change /veh RGS16 (11720943_a_at) / RFU RGS16 (11720944_at) / Fold change /veh RGS16 (11720944_at) / RFU, VPS4B / Fold change vs veh, VPS4B / RFU, CREB1 / Fold change vs veh, CREB1 / RFU, DNAJC13 / Fold change vs veh, DNAJC13 / RFU, GNAQ / Fold change vs veh, GNAQ / RFU, CDK5R1 / Fold change vs veh, CDK5R1 / RFU, ZRANB3 / Fold change vs veh, ZRANB3 / RFU, CUL4A / Fold change vs veh, CUL4A / RFU, CCNY / Fold change vs veh, CCNY / RFU, UFL1 / Fold change vs veh, UFL1 / RFU, COG3 / Fold change vs veh, COG3 / RFU, DIAPH2 / Fold change vs veh, DIAPH2 / RFU, SKA2 / Fold change vs veh, SKA2 / RFU, AFF3 / Fold change vs veh, AFF3 / RFU, LMF1 / Fold change vs veh, LMF1 / RFU, IPO11 / Fold change vs veh, IPO11 / RFU, DFFB / Fold change vs veh, DFFB / RFU, FOXP1 / Fold change vs veh, FOXP1 / RFU, CARD8 / Fold change vs veh, CARD8 / RFU, STRN3 / Fold change vs veh, STRN3 / RFU, ADK / Fold change vs veh, ADK / RFU, RASSF2 / Fold change vs veh, RASSF2 / RFU, WIPF1 / Fold change vs veh, WIPF1 / RFU, LARP1B / Fold change vs veh, LARP1B / RFU, RASA1 / Fold change vs veh, RASA1 / RFU, RB1 / Fold change vs veh, RB1 / RFU, PPFIA1 / Fold change vs veh, PPFIA1 / RFU, MAT2A / Fold change vs veh, MAT2A / RFU, CCT5 / Fold change vs veh, CCT5 / RFU, WDR92 / Fold change vs veh, WDR92 / RFU, CUX1 / Fold change vs veh, CUX1 / RFU, TTC7A / Fold change vs veh, TTC7A / RFU, TMEM135 / Fold change vs veh, TMEM135 / RFU, DEPTOR / Fold change vs veh, DEPTOR / RFU, CPM / Fold change vs veh, CPM / RFU, DNAJB6 / Fold change vs veh, DNAJB6 / RFU, CACNA2D3 / Fold change vs veh, CACNA2D3 / RFU, DTX4 / Fold change vs veh, DTX4 / RFU, TFCP2 / Fold change vs veh, TFCP2 / RFU, GMCL1 /// GMCL1P1 / Fold change vs veh, GMCL1 /// GMCL1P1 / RFU, AEBP2 / Fold change vs veh, AEBP2 / RFU, SNHG1 /// SNORD22 /// SNORD25 /// SNORD26 /// SNORD27 /// SNORD28 /// SNORD29 /// SNORD31 / Fold change vs veh, SNHG1 /// SNORD22 /// SNORD25 /// SNORD26 /// SNORD27 /// SNORD28 /// SNORD29 /// SNORD31 / Fold change (Aza/veh), C12orf56 (ProbeSet 11735607_a_at) / Fold change (ACY-1035/veh), C12orf56 (ProbeSet 11735607_a_at) / Fold change (Aza/veh), FGFR1OP (ProbeSet 11751329_s_at) / Fold change (ACY-1035/veh), FGFR1OP (ProbeSet 11751329_s_at) / Fold change (Aza/veh), VPS36 (ProbeSet 11739960_a_at) / Fold change (ACY-1035/veh), VPS36 (ProbeSet 11739960_a_at) / RFU SYPL1 (11715823_x_at) / Fold change /veh SYPL1 (11715823_x_at) / RFU IGFBP7 (11715501_s_at) / Fold change /veh IGFBP7 (11715501_s_at) / RFU REEP3 (11722064_at) / Fold change /veh REEP3 (11722064_at) / RFU IGLL1 (11728026_x_at) / Fold change /veh IGLL1 (11728026_x_at): dose or concentration left out as unconfirmed
Details: ProbeSet 11747888_a_at; LIST D

Compound: Nc1ccc(-c2cccs2)cc1NC(=O)c1ccc2c(c1)cc(C1CC1)n2CCN1CCOCC1 [ACY-1035]
- RFU, SH3YL1: 63.67 RFU

From article PMC5218480 (PLoS ONE, 2017)
